Patent EP0596057B1, “QUINUCLIDINE DERIVATIVES AS SQUALENE SYNTHASE INHIBITORS” (priority 1992, dated 1993)

Key:
Squalene synthase = target: T1, Squalene synthase (Rattus norvegicus, UniProt Q02769); experiment: Inhibition of Squalene synthase (formation of squalene from tritiated farnesyl pyrophosphate, rat liver microsomal protein); type: biochemical; conditions: substrate 1-[3H]-farnesyl pyrophosphate 20µM, 37°C, 15 minutes, read-out: IC50 (concentration which results in a 50% inhibition of squalene production)
T1 construct: from tissue; host or cells: rat liver microsomes
T1 sequence (Q02769 1-416): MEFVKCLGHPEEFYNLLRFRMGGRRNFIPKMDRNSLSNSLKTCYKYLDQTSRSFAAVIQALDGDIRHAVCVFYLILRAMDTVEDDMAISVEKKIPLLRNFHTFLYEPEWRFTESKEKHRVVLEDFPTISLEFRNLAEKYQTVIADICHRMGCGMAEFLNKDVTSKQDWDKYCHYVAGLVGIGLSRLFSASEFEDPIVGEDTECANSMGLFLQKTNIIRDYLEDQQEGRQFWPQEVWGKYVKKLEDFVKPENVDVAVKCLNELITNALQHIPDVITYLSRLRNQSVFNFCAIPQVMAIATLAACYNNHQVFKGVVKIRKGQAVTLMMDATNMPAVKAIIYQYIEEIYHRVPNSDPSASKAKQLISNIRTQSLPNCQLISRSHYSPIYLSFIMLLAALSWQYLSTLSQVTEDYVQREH
Experimental: In this test, the ability of a compound to prevent the formation of squalene from a radioactive substrate (tritiated farnesyl pyrophosphate) is assessed.
The test compound is incubated at a concentration of 25 micromolar in 200µl of a buffered solution containing potassium phosphate (50mM), MgCl2 (4.95mM), KF (9.9mM), NADPH (0.9mM) and rat liver microsomal protein (20µg). Rat liver microsomes are prepared by the method described in published European Patent Application No. 324,421 and stored in liquid nitrogen prior to assay. Assay vials are kept at 37°C throughout the incubation.
The reaction is started with the addition of the substrate (1-[^3H]-farnesyl pyrophosphate), final concentration 20µM, and stopped after 15 minutes reaction time with the addition of 50µl of 4% KOH. The reaction products are separated from unreacted substrate after application to a C-18 octadecyl lccBond column (Analytichem Int product No. 617101). An aqueous fraction is eluted with 250µl of 0.1M KOH. Squalene is then eluted with 1.0 ml 10% ethylacetate in hexane and radioactivity determined. The difference in radioactivity in the presence and absence of the test compound is used to determine the level of inhibition. […]

[1] = system: de novo hepatic cholesterol synthesis; experiment: Acute rat cholesterol synthesis assay (de novo hepatic cholesterol synthesis from 14C-acetate); type: in vivo; conditions: female rats, [2-14C]-acetate ip 1 hour after compound, plasma sampled after a further hour, route not stated
Experimental: This is an acute in vivo test in the rat to measure de novo hepatic cholesterol synthesis from exogenously administered ^14C-acetate.
Female rats (35 - 55 g) are housed in reverse lighting conditions (red light from 0200h - 1400h) for a period of about 2 weeks prior to test. Animals are allowed free access to chow and drinking water throughout this period. At test, animals should weigh 125 - 150 g.
Test compounds may be administered by oral gavage, dissolved or suspended in 0.5% polysorbate, or by ip or iv dosing. Control animals receive vehicle alone. After 1 hour the rats are injected ip with 25µCi [2-^14C]-acetate (NEN DUPONT. specific activity, 45-60mCi/mmol NEC-085H, or AMERSHAM specific activity, 50-60mCi/mmol CFA 14) in a volume of 0.25 ml saline (100µCi/ml). After a further hour a blood sample was obtained from the abdominal vena cava under terminal halothane anaesthesia.
1ml of plasma is lyophilised and then saponified in 2ml ethanolic KOH (1 part 33% KOH, 9 parts ethanol) at 75°C for 2 hours. After addition of an equal quantity of water, non-saponifiable lipids are extracted with […] 5ml volumes of hexane. The hexane extracts are evaporated to dryness and the residues dissolved in ethanol to determine cholesterol specific radioactivity. ED50 values can be determined in the standard way.

Compound	IC50 (Squalene synthase) [nM]	ED50 [1] [mg/kg]
OC1(c2ccc(COc3ccccc3)cc2)CN2CCC1CC2 (centres unmarked) [Example 2, 3-(4-phenoxymethylphenyl)-quinuclidin-3-ol]	30	–
OC1(c2ccc(C#Cc3ccccc3)cc2)CN2CCC1CC2 (centres unmarked) [Example 4, 3-(4-phenylethyn-2-ylphenyl)quinuclidin-3-ol]	–	29
